# “And” between values parts separate entries of the source, which are not always exact repeats. Identical values can stand only once. Like-named read-outs stand apart in the source and are kept apart here.
# Assay: Bioavailability determination of KD025HCl in mice (plasma levels after IV or PO)
# Type: in vivo
# Conditions: for MRT last: read-out: MRT0-last
# Protocol: To determine the bioavailability KD025HCl, serum concentrations of KD025HCl were determined after varying durations following oral or intravenous (IV) administration. Doses were validated by LC/MS/MS.
# For IV administration, 264 μl of N-Methyl-2-Pyrrolidone (NMP) was added to 1.221 mg of KD025HCl, and the solution vortexed and sonicated until complete dissolution. Then, 2.374 ml of 10% (v/v) solutol in water for injection was added, and the solution vortexed, then sonicated with a bath sonicator. The final dosing formulation of a brownish colored clear solution. A single 2 mg/kg dose (5 ml/kg) was administered IV each to nine male Swiss albino mice.
# For oral administration (PO), […] of Tween-80 was added to 3.38 mg of KD025HCl, triturated, then 2.893 ml of 0.5% methyl cellulose was added in parts with continuous trituration then vortexed. The final dosing formulation was a brownish colored clear solution. A single 10 mg/kg dose (10 ml/kg) was administered PO each to nine male Swiss albino mice.
# Calibration Curve & QC preparation: 2.0 μl of calibration curve standards were added to […] of blank matrix and precipitated with 200 μl of Acetonitrile containing an internal standard at 200 ng/ml. The solution was vortexed for 5 min at 850 rpm, then centrifuged at 4000 rpm for 5 min at 4° C. 110 μl of the supernatant was obtained and diluted with 130 μl of (Methanol:water, 1:1 v/v). Sample Preparation: 50 μl of sample was precipitated with 200 μl of Acetonitrile containing the internal standard at 200 ng/ml. The mixture was vortexed for 5 min at 850 rpm, then centrifuged at 4000 rpm for 5 min at 4° C. 110 μL of supernatant was obtained and diluted with 130 μL of (Methanol:water, 1:1 v/v).
# Using this procedure, the plasma levels of KD025HCl after either IV or PO administration was determined, and bioavailability as well as other pharmacokinetic parameters were determined and shown in Table 6.
# [1] = IV 2.00 mg/kg, 24.00 h, Swiss albino mice, BLQ: Below limits of quantitation
# [2] = IV 2.00 mg/kg, Swiss albino mice, plasma
# [3] = male, mouse, IV 2.00 mg/kg, Swiss albino mice, plasma
# [4] = male, mouse, PO 10.00 mg/kg, Swiss albino mice, plasma
smiles,measurement,setting,value
"COc1ccc(-c2nnc(Nc3nc4c(OC)nccc4[nH]3)o2)cc1OC [KD025HCl, N-(4-Methoxy-1H-imidazo[4,5-c]pyridin-2-yl)-5-(3,4-dimethoxyphenyl)-1,3,4-oxadiazol-2-amine]","Plasma concentration, individual animals (M1-, M2-, M3-)","IV 2.00 mg/kg, 0.08 h, Swiss albino mice, 2 mg/kg",3949.80 ng/mL and 3776.46 ng/mL
same,"Plasma concentration, individual animals (M1-, M2-, M3-)","IV 2.00 mg/kg, 0.25 h, Swiss albino mice, 2 mg/kg",2069.26 ng/mL and 3078.66 ng/mL
same,"Plasma concentration, individual animals (M1-, M2-, M3-)","IV 2.00 mg/kg, 0.50 h, Swiss albino mice, 2 mg/kg",1527.09 ng/mL and 2079.24 ng/mL
same,"Plasma concentration, individual animals (M1-, M2-, M3-)","IV 2.00 mg/kg, 1.00 h, Swiss albino mice, 2 mg/kg",282.26 ng/mL and 11135.53 ng/mL and 952.05 ng/mL
same,"Plasma concentration, individual animals (M1-, M2-, M3-)","IV 2.00 mg/kg, 2.00 h, Swiss albino mice, 2 mg/kg",277.23 ng/mL and 334.05 ng/mL and 611.15 ng/mL
same,"Plasma concentration, individual animals (M1-, M2-, M3-)","IV 2.00 mg/kg, 4.00 h, Swiss albino mice, 2 mg/kg",31.51 ng/mL and 45.40 ng/mL
same,"Plasma concentration, individual animals (M1-, M2-, M3-)","IV 2.00 mg/kg, 8.00 h, Swiss albino mice, 2 mg/kg",11.09 ng/mL and 28.55 ng/mL and 16.02 ng/mL
same,"Plasma concentration, Mean",[1],BLQ
same,"Plasma concentration, individual animals (M1-, M2-, M3-)",[1],BLQ
same,AUCExtra,[2],1.15%
same,Co,[2],5481.64 ng/mL
same,"Plasma concentration, individual animals (M1-, M2-, M3-)","PO 10.00 mg/kg, 0.25 h, Swiss albino mice, 10 mg/kg",1609.45 ng/mL and 742.75 ng/mL and 1428.60 ng/mL
same,"Plasma concentration, individual animals (M1-, M2-, M3-)","PO 10.00 mg/kg, 0.50 h, Swiss albino mice, 10 mg/kg",1712.09 ng/mL and 2056.44 ng/mL
same,"Plasma concentration, individual animals (M1-, M2-, M3-)","PO 10.00 mg/kg, 1.00 h, Swiss albino mice, 10 mg/kg",784.84 ng/mL and 1081.06 ng/mL
same,"Plasma concentration, individual animals (M1-, M2-, M3-)","PO 10.00 mg/kg, 2.00 h, Swiss albino mice, 10 mg/kg",861.31 ng/mL and 1052.53 ng/mL
same,"Plasma concentration, individual animals (M1-, M2-, M3-)","PO 10.00 mg/kg, 4.00 h, Swiss albino mice, 10 mg/kg",179.52 ng/mL and 94.08 ng/mL and 235.20 ng/mL
same,"Plasma concentration, individual animals (M1-, M2-, M3-)","PO 10.00 mg/kg, 6.00 h, Swiss albino mice, 10 mg/kg",93.52 ng/mL and 126.29 ng/mL
same,"Plasma concentration, individual animals (M1-, M2-, M3-)","PO 10.00 mg/kg, 8.00 h, Swiss albino mice, 10 mg/kg",50.78 ng/mL and 99.61 ng/mL
same,"Plasma concentration, Mean","PO 10.00 mg/kg, 24.00 h, Swiss albino mice, BLQ: Below limits of quantitation",BLQ
same,"Plasma concentration, individual animals (M1-, M2-, M3-)","PO 10.00 mg/kg, 24.00 h, Swiss albino mice, BLQ: Below limits of quantitation, 10 mg/kg",BLQ
same,AUCExtra,"PO 10.00 mg/kg, Swiss albino mice, plasma",9.83%
same,concentration at 0.08 h,"male, Swiss albino, mouse, plasma, iv, 2 mg/kg, IV 2.00 mg/kg, 0.08 h, read-out: Plasma concentration, Mean",4170 ng/mL
same,concentration at 0.08 h,"male, Swiss albino, mouse, plasma, iv, 2 mg/kg, IV 2.00 mg/kg, 0.08 h, read-out: Plasma concentration, individual animals (M1-, M2-, M3-)",4790 ng/mL
same,concentration at 0.25 h,"male, Swiss albino, mouse, plasma, iv, 2 mg/kg, IV 2.00 mg/kg, 0.25 h, read-out: Plasma concentration, Mean",2340 ng/mL
same,concentration at 0.25 h,"male, Swiss albino, mouse, plasma, iv, 2 mg/kg, IV 2.00 mg/kg, 0.25 h, read-out: Plasma concentration, individual animals (M1-, M2-, M3-)",1860 ng/mL
same,concentration at 0.5 h,"male, Swiss albino, mouse, plasma, iv, 2 mg/kg, IV 2.00 mg/kg, 0.50 h, read-out: Plasma concentration, Mean",1700 ng/mL
same,concentration at 0.5 h,"male, Swiss albino, mouse, plasma, iv, 2 mg/kg, IV 2.00 mg/kg, 0.50 h, read-out: Plasma concentration, individual animals (M1-, M2-, M3-)",1480 ng/mL
same,concentration at 1 h,"male, Swiss albino, mouse, plasma, iv, 2 mg/kg, IV 2.00 mg/kg, 1.00 h, read-out: Plasma concentration, Mean",790 ng/mL
same,concentration at 2 h,"male, Swiss albino, mouse, plasma, iv, 2 mg/kg, IV 2.00 mg/kg, 2.00 h, read-out: Plasma concentration, Mean",407 ng/mL
same,concentration at 4 h,"male, Swiss albino, mouse, plasma, iv, 2 mg/kg, IV 2.00 mg/kg, 4.00 h, read-out: Plasma concentration, Mean",38 ng/mL
same,concentration at 4 h,"male, Swiss albino, mouse, plasma, iv, 2 mg/kg, IV 2.00 mg/kg, 4.00 h, read-out: Plasma concentration, individual animals (M1-, M2-, M3-)",37.2 ng/mL
same,concentration at 8 h,"male, Swiss albino, mouse, plasma, iv, 2 mg/kg, IV 2.00 mg/kg, 8.00 h, read-out: Plasma concentration, Mean",18.6 ng/mL
same,Vd,"male, Swiss albino, mouse, plasma, iv, 2 mg/kg, IV 2.00 mg/kg, plasma, read-out: Vd",1.24 L/kg
same,Vd,"male, Swiss albino, mouse, plasma, iv, 2 mg/kg, IV 2.00 mg/kg, plasma, read-out: Vss",0.72 L/kg
same,concentration at 0.25 h,"male, Swiss albino, mouse, plasma, po, 10 mg/kg, PO 10.00 mg/kg, 0.25 h, read-out: Plasma concentration, Mean",1260 ng/mL
same,concentration at 0.5 h,"male, Swiss albino, mouse, plasma, po, 10 mg/kg, PO 10.00 mg/kg, 0.50 h, read-out: Plasma concentration, Mean",1910 ng/mL
same,concentration at 0.5 h,"male, Swiss albino, mouse, plasma, po, 10 mg/kg, PO 10.00 mg/kg, 0.50 h, read-out: Plasma concentration, individual animals (M1-, M2-, M3-)",1970 ng/mL
same,concentration at 1 h,"male, Swiss albino, mouse, plasma, po, 10 mg/kg, PO 10.00 mg/kg, 1.00 h, read-out: Plasma concentration, Mean",1140 ng/mL
same,concentration at 1 h,"male, Swiss albino, mouse, plasma, po, 10 mg/kg, PO 10.00 mg/kg, 1.00 h, read-out: Plasma concentration, individual animals (M1-, M2-, M3-)",1570 ng/mL
same,concentration at 2 h,"male, Swiss albino, mouse, plasma, po, 10 mg/kg, PO 10.00 mg/kg, 2.00 h, read-out: Plasma concentration, Mean",953 ng/mL
same,concentration at 2 h,"male, Swiss albino, mouse, plasma, po, 10 mg/kg, PO 10.00 mg/kg, 2.00 h, read-out: Plasma concentration, individual animals (M1-, M2-, M3-)",945 ng/mL
same,concentration at 4 h,"male, Swiss albino, mouse, plasma, po, 10 mg/kg, PO 10.00 mg/kg, 4.00 h, read-out: Plasma concentration, Mean",170 ng/mL
same,concentration at 6 h,"male, Swiss albino, mouse, plasma, po, 10 mg/kg, PO 10.00 mg/kg, 6.00 h, read-out: Plasma concentration, Mean",127 ng/mL
same,concentration at 6 h,"male, Swiss albino, mouse, plasma, po, 10 mg/kg, PO 10.00 mg/kg, 6.00 h, read-out: Plasma concentration, individual animals (M1-, M2-, M3-)",160 ng/mL
same,concentration at 8 h,"male, Swiss albino, mouse, plasma, po, 10 mg/kg, PO 10.00 mg/kg, 8.00 h, read-out: Plasma concentration, Mean",78.6 ng/mL
same,concentration at 8 h,"male, Swiss albino, mouse, plasma, po, 10 mg/kg, PO 10.00 mg/kg, 8.00 h, read-out: Plasma concentration, individual animals (M1-, M2-, M3-)",85.5 ng/mL
same,concentration at 24 h,"male, Swiss albino, mouse, plasma, po, 10 mg/kg, PO 10.00 mg/kg, 24.00 h, BLQ: Below limits of quantitation, read-out: Plasma concentration, individual animals (M1-, M2-, M3-)",1.79 ng/mL
same,bioavailability,"male, mouse, plasma, PO 10.00 mg/kg versus IV 2.00 mg/kg, Swiss albino mice, read-out: Bio availability (% f)",27.3%
same,AUC(0-inf),[3],3050 ng·h/mL
same,AUC(0-t),[3],3010 ng·h/mL
same,clearance,[3],10.9 mL/min/kg
same,half-life,[3],1.31 h
same,MRT last,[3],0.99 h
same,AUC(0-inf),[4],4160 ng·h/mL
same,AUC(0-t),[4],3750 ng·h/mL
same,Cmax,[4],1910 ng/mL
same,Tmax,[4],0.5 h
same,half-life,[4],3.61 h
same,MRT last,[4],2.03 h
